Assay results: US20180008637A1, “NATURAL KILLER CELLS AND USES THEREOF” (ANTHROGENESIS CORPORATION, priority 2014, published 2018)

System: CD34+ cells
Experiment: Three-stage method with SR-1 or CH223191 in Stage 1 and Stage 2 media: NK cell expansion, purity, cytotoxicity
Format: cell-based
Settings: for effects on fold expansion, cell purity (CD56+CD3−), and cytotoxicity of K562 cells at a 10:1 (E:T) ratio: SR-1 and CH223191 compared at 10 μM and 1 μM
Description: CD34^+ cells are cultured in the following medium formulations for the indicated number of days, and aliquots of cells are taken for assessment of cell count, cell viability, characterization of natural killer cell differentiation and functional evaluation.
Stage 1 medium: 90% Stem Cell Growth Medium (SCGM) (CellGro®), 10% Human Serum-AB, supplemented with 4.5 U/mL low molecular weight heparin (LMWH), 25 ng/mL recombinant human thrombopoietin (TPO), 25 ng/mL recombinant human Flt3L, 27 ng/mL recombinant human stem cell factor (SCF), 25 ng/mL recombinant human IL-7, 0.05 ng/mL recombinant human IL-6 (500-fold), 0.25 ng/mL recombinant human granulocyte colony-stimulating factor (G-CSF) (50-fold), 0.01 ng/mL recombinant human granulocyte-macrophage colony-stimulating factor (GM-CSF) (500-fold), 0.10% gentamicin, and 1 to 10 μm StemRegenin-1 (SR-1).
Stage 2 medium: 90% SCGM, 10% Human Serum-AB, supplemented with 4.5 U/mL low molecular weight heparin (LMWH), 25 ng/mL recombinant human Flt3L, 27 ng/mL recombinant human SCF, 25 ng/mL recombinant human IL-7, 20 ng/mL recombinant human IL-15, 0.05 ng/mL recombinant human IL-6 (500-fold), 0.25 ng/mL recombinant human G-CSF (50-fold), 0.01 ng/mL recombinant human GM-CSF (500-fold), 0.10% gentamicin, and 1 to 10 μm SR1.
Stemregenin-1 (SR-1) was evaluated as a component of Stage 1 and Stage 2 media using the three-stage method outlined in Example 1, above, at concentrations of 1 μM, 10 μM, and 30 μM. The same concentrations of CH223191 in the three-stage method were also evaluated.

Compound	effects on fold expansion, cell purity (CD56+CD3−), and cytotoxicity of K562 cells at a 10:1 (E:T) ratio	cytotoxicity of the NK cells produced (SR-1 at 10 μM versus 1 μM and 30 μM in Stage 1 and Stage 2 media)
Cc1ccccc1/N=N/c1ccc(NC(=O)c2ccnn2C)c(C)c1 [CH223191, 1-methyl-N-(2-methyl-4-(2-(2-methylphenyl)diazenyl)phenyl)-1H-pyrazole-5-carboxamide]	Comparable effects	
CC(C)n1cnc2c(NCCc3ccc(O)cc3)nc(-c3csc4ccccc34)nc21 [SR-1, 4-(2-(2-(benzo[b]thien-3-yl)-9-isopropyl-9H-purin-6-ylamino)ethyl)phenol]	Comparable effects	higher cytotoxicity than the other two concentrations tested
